Results as given in publication PMC7351026, “Serum Half-Lives for Short- and Long-Chain Perfluoroalkyl Acids after Ceasing Exposure from Drinking Water Contaminated by Firefighting Foam” (Environmental Health Perspectives, 2020).
Marks after values point to notes of the source that are not given here.

Tests used:
Serum/water ratio = assay type: in vivo, human; details: median serum level of first samples (26 employees) divided by airport drinking-water level
Protocol: The ratio of serum and water concentration for each PFAS (serum/water ratio) was calculated based on median serum level in the first serum sample obtained from all 26 airport employees divided by the drinking-water concentration. This ratio is an indicator of PFAS accumulation in body.

[1] = Population average serum elimination rate and half-life (linear mixed model, one compartment, first-order)
Protocol: (§1) Serum PFAS concentrations were log-transformed. Time was calculated as the elapsed days between supply of clean bottled water and […] blood sampling. We assumed one compartment, first-order elimination kinetics. In this kinetic model, the body is considered as one homogeneous volume in which mixing is instantaneous and from which PFAS could be absorbed, transferred, and eliminated according to the rate of elimination that is proportional to the concentration of PFAS in the body. Two methods were used to estimate serum elimination rate constant (k) and half-life for each PFAS:
Briefly, in the linear mixed model In Cij=αi+tijβ+Xiβ′+εij, Cij is the serum concentration of PFAS for individual i at sampling round j; αi is the subject-specific intercept (random intercept); tij is the time; β is the average slope; Xi is a vector of fixed covariates for individual i; β′ stands for the fixed effect coefficients; and εij is the random error term. We modified the model by excluding the subject-specific slope (random slope) due to a failure to converge after inclusion, which may be due to the limited number of study subjects. The negative value of the average slope ( −β ) is the population average k, and average half-life is calculated as ln2/k .
In the linear mixed model, we included only age and sex as covariates. We based covariate selection on factors that could conceivably confound the PFAS half-life estimation. Working task, duration of employment, number of glasses of water per day, blood donation, and pregnancy before mitigation of PFAS exposure from drinking water can influence the initial serum levels but would not be expected to influence the PFAS half-life.
A sensitivity analysis was performed using the same linear mixed model but with Cij as the serum levels after subtracting general background levels (using the median levels obtained from the nonexposed reference population). If the serum PFAS levels after subtraction were lower than the half of the background levels, they were replaced with half of the background levels.

[2] = Individual serum elimination rate and half-life (linear regression per employee); details: for Elimination rate / HL (half-life): individual estimate
Protocol: as §1
Method 2: For estimation of individual k, linear regression was used to derive the slope ( β ) of the logarithm of serum concentrations vs. time for each employee. The negative value of the slope ( −β ) for each individual was equivalent to the individual k, and individual serum elimination half-life was calculated as ln2/k for each PFAS. If β was positive (i.e., PFAS concentrations tended to increase over the five samplings), the half-life was not calculated.

[3] = cited from earlier work
[4] = population average, model with original serum levels, age and sex as covariates
[5] = population average, model with serum levels after subtraction of background exposure (sensitivity analysis)

Compound	Serum/water ratio (Serum/water ratio)	Half-life (95% CI) [1, 4]	Elimination rate ([2]; subject 1, 5 samples) [yearly]	HL (half-life) ([2]; subject 1, 5 samples) [year]	Elimination rate ([2]; subject 2, 5 samples) [yearly]	Elimination rate ([2]; subject 3, 5 samples) [yearly]	HL (half-life) ([2]; subject 3, 5 samples) [year]	Elimination rate ([2]; subject 4, 5 samples) [yearly]	Elimination rate ([2]; subject 5, 5 samples) [yearly]	Elimination rate ([2]; subject 6, 4 samples) [yearly]	Elimination rate ([2]; subject 7, 5 samples) [yearly]	Elimination rate ([2]; subject 8, 5 samples) [yearly]	Elimination rate ([2]; subject 9, 5 samples) [yearly]	Elimination rate ([2]; subject 10, 5 samples) [yearly]	HL (half-life) ([2]; subject 10, 5 samples) [year]	Elimination rate ([2]; subject 11, 5 samples) [yearly]	HL (half-life) ([2]; subject 11, 5 samples) [year]	Elimination rate ([2]; subject 12, 5 samples) [yearly]	Elimination rate ([2]; subject 13, 5 samples) [yearly]	Elimination rate ([2]; subject 14, 4 samples) [yearly]	other results
O=S(=O)(O)C(F)(F)C(F)(F)C(F)(F)C(F)(F)F [PFBS, perfluorobutane sulfonic acid]	1.65	0.12 (0.1, 0.15)^d year	3.2	0.2	4.0	5.1	0.1	3.1	3.0	2.9	6.2	4.4	11.7	3.8	0.2	7.1	0.1	5.4	6.2	10.7	Constant elimination rate (95% CI) [1, 4]: 5.96 (4.65, 7.27) yearly; HL (half-life) ([2]; subject 2, 5 samples): 0.2 year; HL (half-life) ([2]; subject 4, 5 samples): 0.2 year; HL (half-life) ([2]; subject 5, 5 samples): 0.2 year; HL (half-life) ([2]; subject 6, 4 samples): 0.2 year; HL (half-life) ([2]; subject 7, 5 samples): 0.1 year; HL (half-life) ([2]; subject 8, 5 samples): 0.2 year; HL (half-life) ([2]; subject 9, 5 samples): 0.1 year; HL (half-life) ([2]; subject 12, 5 samples): 0.1 year; HL (half-life) ([2]; subject 13, 5 samples): 0.1 year; HL (half-life) ([2]; subject 14, 4 samples): 0.1 year; Elimination rate ([2]; subject 15, 5 samples): 5.7 yearly; HL (half-life) ([2]; subject 15, 5 samples): 0.1 year; Elimination rate ([2]; subject 16, 5 samples): 3.6 yearly; HL (half-life) ([2]; subject 16, 5 samples): 0.2 year; Elimination rate ([2]; subject 17, 5 samples): 10.4 yearly; HL (half-life) ([2]; subject 17, 5 samples): 0.1 year; Half-life (geometric mean) ([3]; occupationally exposed workers followed up to 180 d, ref Olsen et al. 2009): 25.8 days
O=S(=O)(O)C(F)(F)C(F)(F)C(F)(F)C(F)(F)C(F)(F)C(F)(F)C(F)(F)F [PFHpS, perfluoroheptane sulfonic acid]	81.3	1.46 (0.83, 6.25) year	0.5	1.3	0.2	0.2	3.0	0.001	−0.3	0.1	−0.04	−0.6	0.05	0.4	1.8	1.7	0.4	0.6	−0.2	1.0	Average half-life longer than that of the PFCA with same number of carbon atoms ([1]; PFHpS vs PFHpA, PFOS vs PFOA): ~1.3 y; Average serum half-life ([1]; population average, linear mixed model with original serum levels, 17 airport employees after end of drinking-water exposure): 1.46 y; Constant elimination rate (95% CI) [1, 4]: 0.48 (0.11, 0.84) yearly; Constant elimination rate (95% CI) [1, 5]: 0.51 (0.12, 0.9) yearly; Half-life (95% CI) [1, 5]: 1.35 (0.77, 5.71) year; Reduction of half-life estimation after subtraction of background levels ([1]; sensitivity analysis vs model with original serum levels): 8%; HL (half-life) ([2]; subject 2, 5 samples): 3.4 year; HL (half-life) ([2]; subject 6, 4 samples): 6.1 year; HL (half-life) ([2]; subject 9, 5 samples): 15 year; HL (half-life) ([2]; subject 12, 5 samples): 1.1 year; HL (half-life) ([2]; subject 14, 4 samples): 0.7 year; Elimination rate ([2]; subject 15, 5 samples): 1.6 yearly; HL (half-life) ([2]; subject 15, 5 samples): 0.4 year; Elimination rate ([2]; subject 16, 5 samples): 0.1 yearly; HL (half-life) ([2]; subject 16, 5 samples): 12 year; Elimination rate ([2]; subject 17, 5 samples): 1.7 yearly; HL (half-life) ([2]; subject 17, 5 samples): 0.4 year; Average half-life ([3]; highly exposed general population from Ronneby, Sweden, 108 Swedes, 5 y follow-up, ref Li et al. 2019): 4.7 y
O=C(O)C(F)(F)C(F)(F)C(F)(F)C(F)(F)C(F)(F)F [PFHxA, perfluorohexanoic acid]	1.15	1.63 (NA) year	0.2	4.1	−0.1	1.6	0.4	−0.6	−1.7	−1.6	1.5	−0.7	−0.2	0.4	1.9	2.8	0.2	−0.3	−0.7	−0.5	Individuals without decrement in serum concentration (no individual estimated half-life) ([2]; 5-month follow-up, 17 employees): 53%; HL (half-life) ([2]; subject 7, 5 samples): 0.5 year; Elimination rate ([2]; subject 15, 5 samples): 2.7 yearly; HL (half-life) ([2]; subject 15, 5 samples): 0.3 year; Elimination rate ([2]; subject 16, 5 samples): 1.1 yearly; HL (half-life) ([2]; subject 16, 5 samples): 0.6 year; Elimination rate ([2]; subject 17, 5 samples): 2.5 yearly; HL (half-life) ([2]; subject 17, 5 samples): 0.3 year; Apparent elimination half-life ([3]; whole blood, seven ski wax technicians, ref Russell et al. 2013): 32 days
